This test concerns the target MetAP-2 (Homo sapiens, UniProt P50579). As to the kind of experiment: MetAP-2 activity measurement (coupled enzymatic reactions, substrate Met-Arg-Ser, photometric at 450 nm). Type of test: biochemical. To be noted: read-out: IC50 enzyme (Inhibition of MetAP-2). The method, boiled down:
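Human MetAP-2 cleaves Met-Arg-Ser; the freed methionine is oxidized by L-amino acid oxidase, and the resulting H2O2 drives peroxidase oxidation of dianisidine, read continuously at 450 nm. Activity is taken as the slope in the visually linear region.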

Where a name gives a salt, the structure may show the parent alone.

In general, IC50 refers to the concentration that inhibits the measured activity by half.

MetAP-2, sequence (P50579 whole entry, species assumed): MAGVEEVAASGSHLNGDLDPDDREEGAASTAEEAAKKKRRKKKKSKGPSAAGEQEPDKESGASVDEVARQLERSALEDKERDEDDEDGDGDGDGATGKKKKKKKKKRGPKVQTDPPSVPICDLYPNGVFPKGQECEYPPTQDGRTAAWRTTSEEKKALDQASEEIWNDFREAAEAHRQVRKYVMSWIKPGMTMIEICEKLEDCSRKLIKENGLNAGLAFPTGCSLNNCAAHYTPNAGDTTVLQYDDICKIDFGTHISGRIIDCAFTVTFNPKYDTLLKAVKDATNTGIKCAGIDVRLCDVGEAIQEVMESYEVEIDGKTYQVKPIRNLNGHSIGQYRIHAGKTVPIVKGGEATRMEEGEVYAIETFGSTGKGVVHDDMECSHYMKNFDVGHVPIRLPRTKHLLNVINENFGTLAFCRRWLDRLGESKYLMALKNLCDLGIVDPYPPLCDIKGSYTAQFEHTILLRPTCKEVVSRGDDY

`Clc1ccc(-n2ccc(OC[C@H]3CCCN3c3ncnc4[nH]cnc34)n2)c(Cl)c1` [A153, 6-{(R)-2-[1-(2,4-Dichlorophenyl)-1H-pyrazol-3-yloxymethyl]pyrrolidin-1-yl}-9H-purine]: the half-inhibitory concentration (IC50) was in the range of 10 to 1000 nM.

Take `CCNC(=O)Nc1ccc2cccc(OC[C@H]3CCCN3c3ncnc4[nH]cnc34)c2c1` [A154, 1-Ethyl-3-{8-[(R)-1-(9H-purin-6-yi)pyrrolidin-2-yl-methoxy]naphthalen-2-yl}urea]: the IC50 lay in the range of 1000 to 10000 nM.

Regarding `CCNC(=O)N1CCN(c2ccc3cccc(OC[C@H]4CCCN4c4ncnc5[nH]cnc45)c3c2)CC1` [A155, N-Ethyl-4-{8-[(R)-1-(9H-purin-6-yl)pyrrolidin-2-yl-methoxy]naphthalen-2-yl}piperazine-1-carboxamide], the IC50 lay within 1000 to 10000 nM.

`O=C(NCc1ccco1)N1CCN(c2ccc3cccc(OC[C@H]4CCCN4c4ncnc5[nH]cnc45)c3c2)CC1` [A156, N-(Furan-2-ylmethyl)-4-{8-[(R)-1-(9H-purin-6-yl)-pyrrolidin-2-ylmethoxy]naphthalen-2-yl}-piperazine-1-carboxamide]: the IC50 fell in the range of 1000 to 10000 nM.

Consider `CCOC(=O)CNC(=O)N1CCN(c2ccc3cccc(OC[C@H]4CCCN4c4ncnc5[nH]cnc45)c3c2)CC1` [A157, Ethyl [(4-{8-[(R)-1-(9H-purin-6-yl)pyrrolidin-2-yl-methoxy]naphthalen-2-yl}piperazine-1-carbonyl)amino]acetate], for which the concentration for half-maximal inhibition (IC50) was in the range of 1000 to 10000 nM.

As for `O=C(O)CNC(=O)N1CCN(c2ccc3cccc(OC[C@H]4CCCN4c4ncnc5[nH]cnc45)c3c2)CC1` [A158, [(4-{8-[(R)-1-(9H-Purin-6-yl)pyrrolidin-2-yl-methoxy]naphthalen-2-yl}piperazine-1-carbonyl)amino]acetic acid], the 50% inhibitory concentration (IC50) was over 10000 nM.

As to `O=C(NCc1ccco1)Nc1ccc2cccc(OC[C@H]3CCCN3c3ncnc4[nH]cnc34)c2c1` [A159, 1-Furan-2-ylmethyl-3-{8-[(R)-1-(9H-purin-6-yl)-pyrrolidin-2-ylmethoxy]naphthalen-2-yl}urea], the half-inhibitory concentration (IC50) is 1000 to 10000 nM.

Take `COC(=O)CC[C@H](NC(=O)OCc1ccccc1)C(=O)Nc1ccc2cccc(OC[C@H]3CCCN3c3ncnc4[nH]cnc34)c2c1` [A160, Methyl (S)-4-benzyloxycarbonylamino-4-{8-[(R)-1-(9H-purin-6-yl)pyrrolidin-2-ylmethoxy]-naphthalen-2-ylcarbamoyl}butyrate]: the concentration for half-maximal inhibition (IC50) was over 10000 nM.

`CC(C)(C)OC(=O)N[C@@H](CCC(N)=O)C(=O)Nc1ccc2cccc(OC[C@H]3CCCN3c3ncnc4[nH]cnc34)c2c1` [A161, tert-Butyl ((S)-3-carbamoyl-1-{8-[(R)-1-(9H-purin-6-yl)pyrrolidin-2-ylmethoxy]naphthalen-2-ylcarbamoyl}propyl)carbamate]: the half-maximal inhibitory concentration (IC50) fell in the range of 1000 to 10000 nM.

For the molecule `CC(C)(C)OC(=O)N[C@H](CC(N)=O)C(=O)Nc1ccc2cccc(OC[C@H]3CCCN3c3ncnc4[nH]cnc34)c2c1` [A162, tert-Butyl ((R)-2-carbamoyl-1-{8-[(R)-1-(9H-purin-6-yl)pyrrolidin-2-ylmethoxy]naphthalen-2-ylcarbamoyl}ethyl)carbamate], the IC50 lay within 1000 to 10000 nM.

For the molecule `CC(C)(C)OC(=O)N[C@@H](Cc1c[nH]cn1)C(=O)Nc1ccc2cccc(OC[C@H]3CCCN3c3ncnc4[nH]cnc34)c2c1` [A163, tert-Butyl ((S)-2-(1H-imidazol-4-yl)-1-{8-[(R)-1-(9H-purin-6-yl)pyrrolidin-2-ylmethoxy]-naphthalen-2-ylcarbamoyl}ethyl)carbamate], the half-inhibitory concentration (IC50) was 1000 to 10000 nM.

In the case of `N[C@@H](Cc1c[nH]cn1)C(=O)Nc1ccc2cccc(OC[C@H]3CCCN3c3ncnc4[nH]cnc34)c2c1` [A164, (S)-2-Amino-3-(1H-imidazol-4-yl)-N-{8-[(R)-1-(9H-purin-6-yl)pyrrolidin-2-ylmethoxy]-naphthalen-2-yl}propionamide * HCl], the half-maximal inhibitory concentration (IC50) lay in the range of 1000 to 10000 nM.

Take `NC(=O)CC[C@H](N)C(=O)Nc1ccc2cccc(OC[C@H]3CCCN3c3ncnc4[nH]cnc34)c2c1` [A165, N-(1-({8-[(R)-1-(9H-Purin-6-yl)pyrrolidin-2-yl-methoxy]naphthalen-2-yl})-(S)-2-aminopentan-5-amide * HCl]: the IC50 is 1000 to 10000 nM.

`O=CN1CCN(c2ccc3cccc(OC[C@H]4CCCN4c4ncnc5[nH]cnc45)c3c2)CC1` [A166, 4-{8-[(R)-1-(9H-Purin-6-yl)pyrrolidin-2-ylm-ethoxy]naphthalen-2-yl}piperazine-1-carbaldehyde]: the 50% inhibitory concentration (IC50) lay in the range of 10 to 1000 nM.

For the molecule `CC(C)(C)OC(=O)NCC(=O)N1CCN(c2ccc3cccc(OC[C@H]4CCCN4c4ncnc5[nH]cnc45)c3c2)CC1` [A167, tert-Butyl [2-oxo-2-(4-{8-[(R)-1-(9H-purin-6-yl)-pyrrolidin-2-ylmethoxy]naphthalen-2-yl}-piperazin-1-yl)ethyl]carbamate], the half-maximal inhibitory concentration (IC50) was 1000 to 10000 nM.

As to `NCC(=O)N1CCN(c2ccc3cccc(OC[C@H]4CCCN4c4ncnc5[nH]cnc45)c3c2)CC1` [A168, 2-Amino-1-(4-{8-[(R)-1-(9H-purin-6-yl)pyrrolidin-2-ylmethoxy]naphthalen-2-yl}piperazin-1-yl)-ethanone], the IC50 lay in the range of 1000 to 10000 nM.

Turning to `OC1CCN(C2CCc3cccc(OC[C@H]4CCCN4c4ncnc5[nH]cnc45)c3C2)C1` (stereo partly drawn) [A169, 1-{8-[(R)-1-(9H-Purin-6-yl)pyrrolidin-2-yl-methoxy]-1,2,3,4-tetrahydronaphthalen-2-yl}pyrrolidin-3-ol], the IC50 was in the range of 1000 to 10000 nM.

`OC1CN(C2CCc3cccc(OC[C@H]4CCCN4c4ncnc5[nH]cnc45)c3C2)C1` (stereo partly drawn) [A170, 1-{8-[(R)-1-(9H-Purin-6-yl)pyrrolidin-2-yl-methoxy]-1,2,3,4-tetrahydronaphthalen-2-yl}azetidin-3-ol]: the IC50 was 10 to 1000 nM.

For `CC(=O)NC1CCN(C2CCc3cccc(OC[C@H]4CCCN4c4ncnc5[nH]cnc45)c3C2)C1` (stereo partly drawn) [A171, N-(1-{8-[(R)-1-(9H-Purin-6-yl)pyrrolidin-2-yl-methoxy]-1,2,3,4-tetrahydronaphthalen-2-yl}pyrrolidin-3-yl)acetamide], the half-maximal inhibitory concentration (IC50) was 1000 to 10000 nM.

Turning to `c1ccc2c(NCCN3CCOCC3)ncc(OC[C@H]3CCCN3c3ncnc4[nH]cnc34)c2c1` [A172, (2-Morpholin-4-ylethyl)-{4-[(R)-1-(9H-purin-6-yl)-pyrrolidin-2-ylmethoxy]isoquinolin-1-yl}amine], the IC50 lay in the range of 1000 to 10000 nM.

On to `CN(C)C(=O)CC1CCc2c(OC[C@H]3CCCN3c3ncnc4[nH]cnc34)cccc2C1=O` (stereo partly drawn) [A173, N,N-Dimethyl-2-{1-oxo-5-[(R)-1-(9H-purin-6-yl)-pyrrolidin-2-ylmethoxy]-1,2,3,4-tetrahydro-naphthalen-2-yl}acetamide], for which the IC50 was in the range of 10 to 1000 nM.

`CN(C)C(=O)C[C@@H]1CCc2c(OC[C@H]3CCCN3c3ncnc4[nH]cnc34)cccc2C1=O` [A174, N,N-Dimethyl-2-{(S)-1-oxo-5-[(R)-1-(9H-purin-6-yl)pyrrolidin-2-ylmethoxy]-1,2,3,4-tetrahydro-naphthalen-2-yl}acetamide]: the half-maximal inhibitory concentration (IC50) fell in the range of 10 to 1000 nM.

With `CN(C)C(=O)C[C@H]1CCc2c(OC[C@H]3CCCN3c3ncnc4[nH]cnc34)cccc2C1=O` [A175, N,N-Dimethyl-2-{(R)-1-oxo-5-[(R)-1-(9H-purin-6-yl)pyrrolidin-2-ylmethoxy]-1,2,3,4-tetrahydro-naphthalen-2-yl}acetamide], the IC50 lay in the range of 10 to 1000 nM.

With `CCNC(=O)CC1CCc2c(OC[C@H]3CCCN3c3ncnc4[nH]cnc34)cccc2C1=O` (stereo partly drawn) [A176, N-Ethyl-2-{1-oxo-5-[(R)-1-(9H-purin-6-yl)-pyrrolidin-2-ylmethoxy]-1,2,3,4-tetrahydro-naphthalen-2-yl}acetamide], the half-inhibitory concentration (IC50) fell in the range of 10 to 1000 nM.

As to `NC(=O)C[C@@H](N)C(=O)Nc1ccc2cccc(OC[C@H]3CCCN3c3ncnc4[nH]cnc34)c2c1` [A177, (R)-2-Amino-N1-{8-[(R)-1-(9H-purin-6-yl)-pyrrolidin-2-ylmethoxy]naphthalen-2-yl}succinamide], the IC50 lay within 1000 to 10000 nM.

As for `c1ccc2c(NCCCN3CCOCC3)ncc(OC[C@H]3CCCN3c3ncnc4[nH]cnc34)c2c1` [A178, (3-Morpholin-4-ylpropyl)-{4-[(R)-1-(9H-purin-6-yl)pyrrolidin-2-ylmethoxy]isoquinolin-1-yl}amine], the half-maximal inhibitory concentration (IC50) was in the range of 1000 to 10000 nM.

Turning to `CNC(=O)CC1CCc2c(OC[C@H]3CCCN3c3ncnc4[nH]cnc34)cccc2C1=O` (stereo partly drawn) [A179, N-Methyl-2-{1-oxo-5-[(R)-1-(9H-purin-6-yl)-pyrrolidin-2-ylmethoxy]-1,2,3,4-tetrahydro-naphthalen-2-yl}acetamide], the IC50 fell in the range of 10 to 1000 nM.

As to `O=C(CC1CCc2c(OC[C@H]3CCCN3c3ncnc4[nH]cnc34)cccc2C1=O)NCCO` (stereo partly drawn) [A180, N-(2-Hydroxyethyl)-2-{1-oxo-5-[(R)-1-(9H-purin-6-yl)pyrrolidin-2-ylmethoxy]-1,2,3,4-tetrahydro-naphthalen-2-yl}acetamide], the half-inhibitory concentration (IC50) was in the range of 10 to 1000 nM.

`CN(C)CCNc1ncc(OC[C@H]2CCCN2c2ncnc3[nH]cnc23)c2ccccc12` [A181, N,N-Dimethyl-N′-{4-[(R)-1-(9H-purin-6-yl)-pyrrolidin-2-ylmethoxy]isoquinolin-1-yl}ethane-1,2-diamine]: the half-maximal inhibitory concentration (IC50) lay in the range of 10 to 1000 nM.

Take `CN(C)CCCNc1ncc(OC[C@H]2CCCN2c2ncnc3[nH]cnc23)c2ccccc12` [A182]: the IC50 fell in the range of 10 to 1000 nM.

Take `O=C(O)CC[C@H](NC(=O)O)C(=O)Nc1ccc2cccc(OC[C@H]3CCCN3c3ncnc4[nH]cnc34)c2c1` [A183, (S)-4-Carboxyamino-4-{8-[(R)-1-(9H-purin-6-yl)-pyrrolidin-2-ylmethoxy]naphthalen-2-yl-carbamoyl}butyric acid]: the IC50 is over 10000 nM.

In the case of `CCOC(=O)c1c(OC[C@H]2CCCN2c2ncnc3[nH]cnc23)c2cc(F)ccc2n1C` [A184, Ethyl 5-fIuoro-1-methyl-3-[(R)-1-(9H-purin-6-yl)-pyrrolidin-2-ylmethoxy]-1H-indole-2-carboxylate], the IC50 was over 10000 nM.

Regarding `CCOC(=O)Cn1c(C(=O)OCC)c(OC[C@H]2CCCN2c2ncnc3[nH]cnc23)c2cc(F)ccc21` [A185, Ethyl 1-ethoxycarbonylmethyl-5-fluoro-3-[(R)-1-(9H-purin-6-yl)pyrrolidin-2-ylmethoxy]-1H-indole-2-carboxylate], the concentration for half-maximal inhibition (IC50) was over 10000 nM.

(Values after patent publication US8846694B2, “Pyrrolidone derivatives for use as MetAP-2 inhibitors” (Merck Patent GmbH, priority 2008, dated 2014).)
